Test results from the NIST ThermoML archive (doi:10.1016/j.fluid.2015.03.031).
± gives the expanded uncertainty stated by the source.

Assay: cn = amount concentration of the nth substance listed, in mol/dm3
Conditions: 101 kPa, Liquid; for viscosity: Capillary tube (Ostwald / Ubbelohde) method; for mass density: Pycnometric method

NCCCC[C@H](N)C(=O)[O-].[K+] [potassium L-lysinate] + O
viscosity (298 K, c1 = 0.5): 1.162 ± 0.047 mPa·s | viscosity (298 K, c1 = 1.5): 2.284 ± 0.092 mPa·s | viscosity (298 K, c1 = 2.5): 3.165 ± 0.13 mPa·s | mass density (298 K, c1 = 0.5): 1038.6 ± 0.3 kg/m3 | mass density (298 K, c1 = 1.5): 1108.9 ± 0.4 kg/m3 | mass density (298 K, c1 = 2.5): 1173.8 ± 0.4 kg/m3 | viscosity (308 K, c1 = 0.5): 0.9848 ± 0.04 mPa·s | viscosity (308 K, c1 = 1.5): 1.905 ± 0.077 mPa·s | viscosity (308 K, c1 = 2.5): 2.653 ± 0.11 mPa·s | mass density (308 K, c1 = 0.5): 1036.3 ± 0.3 kg/m3 | mass density (308 K, c1 = 1.5): 1107.5 ± 0.4 kg/m3 | mass density (308 K, c1 = 2.5): 1171.1 ± 0.4 kg/m3 | viscosity (313 K, c1 = 0.5): 0.894 ± 0.036 mPa·s | viscosity (313 K, c1 = 1.5): 1.686 ± 0.068 mPa·s | viscosity (313 K, c1 = 2.5): 2.416 ± 0.098 mPa·s | mass density (313 K, c1 = 0.5): 1030.7 ± 0.4 kg/m3 | mass density (313 K, c1 = 1.5): 1105.1 ± 0.4 kg/m3 | mass density (313 K, c1 = 2.5): 1168.8 ± 0.4 kg/m3
